Reference: patent US6653330B2, “Amide-type triazole compounds” (Sankyo Company, Limited, priority 2000, dated 2003)
Values after ≈ are worked out from the molar mass of the structure shown.

Legend:
[1] = tested on: Aspergillus fumigatus SANK 10569; test: In vitro antifungal activity (MIC), Aspergillus fumigatus; type: cell-based; details: SANK10569, MIC = lowest concentration causing at least 80% growth inhibition (IC80), RPMI1640 pH 7.0, 30° C., trans isomers
Experimental: (§1) The antifungal activities of test compounds were assessed according to their minimum inhibitory concentrations (MICs) which were measured by the methods described below.
(§2) Liquid medium: RPMI1640 medium which was buffered to pH 7.0 (without an indicator) with 0.165M 3-(morpholino)propanesulfonic acid was used for Candida albicans and Aspergillus fumigatus. Yeast Nitrogen Base medium which was buffered to pH 7.0 with 0.165M 3-(morpholino)propanesulfonic acid was used for Cryptococcus neoformans.
(§3) Preparation of inoculation fungi solution: Each test fungi solution of Candida albicans and Cryptococcus neoformans was incubated on Sabouraud agar medium at 35° C. for 48 hours. About five colonies of the test fungi having 1 mm diameter were suspended in physiological saline and the transmittance of the suspension was adjusted to Macfarland 0.5 degree. A one thousand-fold diluted suspension of the resulting suspension was prepared by dilution with the liquid medium described above and was used for Candida albicans. A one hundred-fold diluted suspension of the resulting suspension was prepared by dilution with the liquid medium described above and was used for Cryptococcus neoformans. Aspergillus fumigatus was incubated on Potato dextrose agar at 35° C. for five days. Spores on the agar medium were collected with physiological saline containing 0.05% Tween 80 and the number of spores was adjusted to 2.5×10^7/ml using a blood cell counter. A one thousand-fold diluted suspension was prepared by dilution of the resulting spore suspension with the liquid medium described above and was used for Aspergillus fumigatus.
(§4) Preparation of test compound solution: Each test compound was dissolved in 100% dimethyl sulfoxide and serial two-fold dilutions of each compound were prepared with 100% dimethyl sulfoxide. The final concentration of dimethyl sulfoxide was adjusted to not greater than 1% by dilution with each liquid medium described above respectively.
(§5) Assessment method: Each diluted test compound (100 μl), the inoculation fungi solution (80 μl) and Alamar blue solution (20 μl) was sequentially added to each of wells of microtiter plate having 96 wells. The resulting mixture was incubated at 35° C. (30° C. for Aspergillus fumigatus). When the light absorbance at 570 nm of growth control exceeded 0.6, the MICs were determined. The MICs were defined as the lowest compound concentrations causing at least 80% growth inhibition (IC80) compared with the control to which the test compound was not added.

[2] = tested on: Cryptococcus neoformans TIMM 1855; test: In vitro antifungal activity (MIC), Cryptococcus neoformans; type: cell-based; details: TIMM1855, MIC = lowest concentration causing at least 80% growth inhibition (IC80), Yeast Nitrogen Base pH 7.0, 35° C., trans isomers
Experimental: as §1, §2, §3, §4, §5

[3] = tested on: Candida albicans SANK 51486; test: In vitro antifungal activity (MIC), Candida albicans; type: cell-based; details: SANK51486, MIC = lowest concentration causing at least 80% growth inhibition (IC80), RPMI1640 pH 7.0, 35° C., trans isomers
Experimental: as §1, §2, §3, §4, §5

Row | SMILES | MIC [1] | MIC [2] | MIC [3] | melting point
1 | C[C@@H](SC1COC(c2ccccc2)OC1)[C@](O)(Cn1cncn1)c1ccc(F)cc1F (some centres unmarked) [Comparative compound (A), reference compound] | 4 µg/mL (≈ 8.94 µM) | 0.25 µg/mL (≈ 0.559 µM) | 0.063 µg/mL (≈ 0.141 µM) | 
2 | C[C@@H](S[C@H]1CO[C@H](c2ccc(C(=O)Nc3ccc(OCC(F)(F)C(F)F)cc3)cc2)OC1)[C@](O)(Cn1cncn1)c1ccc(F)cc1F [Example 1, 4-[trans-5-[[(1R,2R)-2-(2,4-Difluorophenyl)-2-hydroxy-1-methyl-3-(1H-1,2,4-triazol-1-yl)propyl]thio]-1,3-dioxan-2-yl]-4′-(2,2,3,3-tetrafluoropropoxy)benzanilide] | 0.125 µg/mL (≈ 0.179 µM) | 0.063 µg/mL (≈ 0.0904 µM) | 0.016 µg/mL (≈ 0.023 µM) | 156 °C
3 | C[C@@H](S[C@H]1CO[C@H](c2ccc3cc(C(=O)Nc4ccc(C#N)cc4)ccc3c2)OC1)[C@](O)(Cn1cncn1)c1ccc(F)cc1F [Example 3, 4′-Cyano-6-[trans-5-[[(1R,2R)-2-(2,4-difluorophenyl)-2-hydroxy-1-methyl-3-(1H-1,2,4-triazol-1-yl)propyl]thio]-1,3-dioxan-2-yl]-2-naphthoanilide] | 0.063 µg/mL (≈ 0.0982 µM) | 0.063 µg/mL (≈ 0.0982 µM) | ≤ 0.008 µg/mL | 114 °C

Next, values leading:

Row | MIC [1] | MIC [2] | MIC [3] | melting point | SMILES
4 | 2 µg/mL (≈ 3.33 µM) | 0.25 µg/mL (≈ 0.416 µM) | ≤ 0.008 µg/mL | 90 °C | C[C@@H](S[C@H]1CO[C@H](c2cccc(C(=O)Nc3ccc(Cl)cc3)c2)OC1)[C@](O)(Cn1cncn1)c1ccc(F)cc1F [Example 9, 4′-Chloro-3-[trans-5-[[(1R,2R)-2-(2,4-difluorophenyl)-2-hydroxy-1-methyl-3-(1H-1,2,4-triazol-1-yl)propyl]thio]-1,3-dioxan-2-yl]benzanilide]
5 | 0.5 µg/mL (≈ 0.858 µM) | 0.25 µg/mL (≈ 0.429 µM) | 0.016 µg/mL (≈ 0.0275 µM) | 254 °C | C[C@@H](S[C@H]1CO[C@H](c2ccc(C(=O)Nc3ccc(O)cc3)cc2)OC1)[C@](O)(Cn1cncn1)c1ccc(F)cc1F [Example 23, 4-[trans-5-[[(1R,2R)-2-(2,4-Difluorophenyl)-2-hydroxy-1-methyl-3-(1H-1,2,4-triazol-1-yl)propyl]thio]-1,3-dioxan-2-yl]-4′-hydroxybenzanilide]
6 | 0.25 µg/mL (≈ 0.413 µM) | 0.25 µg/mL (≈ 0.413 µM) | 0.016 µg/mL (≈ 0.0264 µM) | 188 °C | C[C@@H](S[C@H]1CO[C@H](c2ccc(C(=O)NCc3ccc(C#N)cc3)cc2)OC1)[C@](O)(Cn1cncn1)c1ccc(F)cc1F [Example 26, N-(4-Cyanobenzyl)-4-[trans-5-[[(1R,2R)-2-(2,4-difluorophenyl)-2-hydroxy-1-methyl-3-(1H-1,2,4-triazol-1-yl)propyl]thio]-1,3-dioxan-2-yl]benzamide]
